Results from US10053465B2 (Incyte Corporation, priority 2015, dated 2018).
Read-outs that look alike come from different tables or passages of the source.

What was measured:
[1] = target: JAK2 (Homo sapiens (Human), UniProt O60674); details: ratio of IC50 at 1 mM ATP; cited from earlier work
[2] = target: Tyro3 (Homo sapiens (Human), UniProt Q06418); experiment: biochemical; details: read-out: Tyro3IC50
Protocol: (§1) 0.1 ul test compounds dissolved in DMSO were transferred from compound plates to white 384-well assay plates (Greiner [sequence] plates). […] The plate was protected from light and incubated at room temperature for 60 min.

[3] = target: T1, c-Mer (Homo sapiens (Human), UniProt Q12866); experiment: biochemical
Protocol: as §1

[4] = target: Phospho-Axl (Homo sapiens (Human), UniProt P30530); experiment: biochemical;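 further: test system is recombinant Axl protein that was first autophosphorylated with ATP and MgCl2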
Protocol: Autophosphorylation of Axl was carried out by incubating the recombinant Axl protein (Life Technologies, PV4275) in buffer containing 50 mM Tris, pH7.5, 0.2 mg/ml Axl, 5 mM ATP, 20 mM MgCl2 and 2 mM DTT at room temperature for 1 hour.
as §1

[5] = target: T1, c-Mer; details: read-out: c-Mer IC50; HTRF, 60 min room temperature
Protocol: as §1

[6] = system: tumor models with different histologies; details: Paolino et al., 2014; cited from earlier work
[7] = system: NK cells; details: Paolino et al., 2014; cited from earlier work

T1 sequence (Q12866 21-999): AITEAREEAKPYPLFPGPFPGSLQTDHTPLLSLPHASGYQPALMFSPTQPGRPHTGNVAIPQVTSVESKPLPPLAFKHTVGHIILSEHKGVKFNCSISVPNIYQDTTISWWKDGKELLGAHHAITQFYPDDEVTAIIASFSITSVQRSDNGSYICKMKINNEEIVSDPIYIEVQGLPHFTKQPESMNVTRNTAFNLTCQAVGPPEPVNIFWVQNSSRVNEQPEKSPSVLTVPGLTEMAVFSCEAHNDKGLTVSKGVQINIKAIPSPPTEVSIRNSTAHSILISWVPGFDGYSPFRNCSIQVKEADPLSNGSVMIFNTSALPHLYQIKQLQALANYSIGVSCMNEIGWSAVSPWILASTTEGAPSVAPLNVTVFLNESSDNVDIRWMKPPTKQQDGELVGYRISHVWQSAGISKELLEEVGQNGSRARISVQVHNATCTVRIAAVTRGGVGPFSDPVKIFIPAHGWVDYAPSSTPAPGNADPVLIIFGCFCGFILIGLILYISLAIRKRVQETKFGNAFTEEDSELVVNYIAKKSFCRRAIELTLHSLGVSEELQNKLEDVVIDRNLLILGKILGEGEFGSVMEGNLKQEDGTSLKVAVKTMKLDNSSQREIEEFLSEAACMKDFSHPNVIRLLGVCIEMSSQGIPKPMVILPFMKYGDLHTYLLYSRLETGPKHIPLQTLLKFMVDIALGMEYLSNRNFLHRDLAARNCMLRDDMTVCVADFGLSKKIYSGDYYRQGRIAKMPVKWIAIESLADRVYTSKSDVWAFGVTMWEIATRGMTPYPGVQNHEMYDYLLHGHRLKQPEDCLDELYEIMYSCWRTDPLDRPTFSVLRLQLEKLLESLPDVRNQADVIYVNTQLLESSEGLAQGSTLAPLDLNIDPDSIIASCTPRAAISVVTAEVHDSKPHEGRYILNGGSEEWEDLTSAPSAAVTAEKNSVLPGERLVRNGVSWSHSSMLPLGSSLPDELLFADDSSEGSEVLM
Phospho-Axl, sequence (P30530 26-894): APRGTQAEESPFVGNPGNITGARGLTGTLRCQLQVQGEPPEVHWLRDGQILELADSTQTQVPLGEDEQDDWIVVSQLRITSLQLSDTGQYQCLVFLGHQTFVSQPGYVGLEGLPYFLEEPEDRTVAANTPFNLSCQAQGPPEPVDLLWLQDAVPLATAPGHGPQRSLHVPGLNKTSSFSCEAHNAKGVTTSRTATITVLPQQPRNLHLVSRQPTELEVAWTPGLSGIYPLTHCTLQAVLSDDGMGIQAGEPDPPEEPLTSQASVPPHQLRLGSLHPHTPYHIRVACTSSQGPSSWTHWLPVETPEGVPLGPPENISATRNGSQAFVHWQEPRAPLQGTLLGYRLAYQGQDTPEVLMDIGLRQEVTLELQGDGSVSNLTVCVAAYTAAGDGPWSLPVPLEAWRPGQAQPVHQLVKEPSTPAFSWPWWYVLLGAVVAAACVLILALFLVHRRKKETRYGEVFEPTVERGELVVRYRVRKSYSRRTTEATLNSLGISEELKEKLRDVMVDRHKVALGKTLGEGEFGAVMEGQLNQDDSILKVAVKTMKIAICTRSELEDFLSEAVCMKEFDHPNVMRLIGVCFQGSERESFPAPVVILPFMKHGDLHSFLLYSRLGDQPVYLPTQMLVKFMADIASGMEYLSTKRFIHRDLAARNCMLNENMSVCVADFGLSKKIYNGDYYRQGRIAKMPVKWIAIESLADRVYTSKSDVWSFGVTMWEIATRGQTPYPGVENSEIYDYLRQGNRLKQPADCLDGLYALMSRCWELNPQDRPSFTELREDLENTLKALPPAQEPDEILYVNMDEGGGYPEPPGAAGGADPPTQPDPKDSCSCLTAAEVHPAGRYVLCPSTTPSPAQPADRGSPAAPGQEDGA
Tyro3, sequence (Q06418 41-890): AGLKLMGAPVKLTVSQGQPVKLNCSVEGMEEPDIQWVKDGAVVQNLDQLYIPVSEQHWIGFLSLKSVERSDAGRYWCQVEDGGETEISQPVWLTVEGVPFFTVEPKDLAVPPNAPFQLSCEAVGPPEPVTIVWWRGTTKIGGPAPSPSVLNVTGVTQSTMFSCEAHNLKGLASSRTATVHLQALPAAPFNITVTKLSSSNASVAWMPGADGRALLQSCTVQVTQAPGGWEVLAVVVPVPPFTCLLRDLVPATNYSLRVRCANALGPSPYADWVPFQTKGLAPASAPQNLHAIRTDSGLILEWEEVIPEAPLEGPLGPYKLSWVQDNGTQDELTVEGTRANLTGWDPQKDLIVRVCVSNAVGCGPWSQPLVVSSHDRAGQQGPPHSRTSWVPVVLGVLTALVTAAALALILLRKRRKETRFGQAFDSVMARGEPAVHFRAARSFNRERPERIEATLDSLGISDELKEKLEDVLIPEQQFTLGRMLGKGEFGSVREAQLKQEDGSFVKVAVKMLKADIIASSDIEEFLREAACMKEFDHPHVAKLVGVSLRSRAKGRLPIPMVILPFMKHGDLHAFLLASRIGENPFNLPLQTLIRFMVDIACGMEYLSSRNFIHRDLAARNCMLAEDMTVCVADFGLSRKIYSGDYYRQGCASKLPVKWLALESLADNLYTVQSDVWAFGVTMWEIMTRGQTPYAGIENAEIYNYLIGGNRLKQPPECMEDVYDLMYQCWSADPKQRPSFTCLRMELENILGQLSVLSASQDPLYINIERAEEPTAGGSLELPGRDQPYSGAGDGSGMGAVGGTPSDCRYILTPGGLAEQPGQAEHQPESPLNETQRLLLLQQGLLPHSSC
JAK2, sequence (O60674 whole entry, species assumed): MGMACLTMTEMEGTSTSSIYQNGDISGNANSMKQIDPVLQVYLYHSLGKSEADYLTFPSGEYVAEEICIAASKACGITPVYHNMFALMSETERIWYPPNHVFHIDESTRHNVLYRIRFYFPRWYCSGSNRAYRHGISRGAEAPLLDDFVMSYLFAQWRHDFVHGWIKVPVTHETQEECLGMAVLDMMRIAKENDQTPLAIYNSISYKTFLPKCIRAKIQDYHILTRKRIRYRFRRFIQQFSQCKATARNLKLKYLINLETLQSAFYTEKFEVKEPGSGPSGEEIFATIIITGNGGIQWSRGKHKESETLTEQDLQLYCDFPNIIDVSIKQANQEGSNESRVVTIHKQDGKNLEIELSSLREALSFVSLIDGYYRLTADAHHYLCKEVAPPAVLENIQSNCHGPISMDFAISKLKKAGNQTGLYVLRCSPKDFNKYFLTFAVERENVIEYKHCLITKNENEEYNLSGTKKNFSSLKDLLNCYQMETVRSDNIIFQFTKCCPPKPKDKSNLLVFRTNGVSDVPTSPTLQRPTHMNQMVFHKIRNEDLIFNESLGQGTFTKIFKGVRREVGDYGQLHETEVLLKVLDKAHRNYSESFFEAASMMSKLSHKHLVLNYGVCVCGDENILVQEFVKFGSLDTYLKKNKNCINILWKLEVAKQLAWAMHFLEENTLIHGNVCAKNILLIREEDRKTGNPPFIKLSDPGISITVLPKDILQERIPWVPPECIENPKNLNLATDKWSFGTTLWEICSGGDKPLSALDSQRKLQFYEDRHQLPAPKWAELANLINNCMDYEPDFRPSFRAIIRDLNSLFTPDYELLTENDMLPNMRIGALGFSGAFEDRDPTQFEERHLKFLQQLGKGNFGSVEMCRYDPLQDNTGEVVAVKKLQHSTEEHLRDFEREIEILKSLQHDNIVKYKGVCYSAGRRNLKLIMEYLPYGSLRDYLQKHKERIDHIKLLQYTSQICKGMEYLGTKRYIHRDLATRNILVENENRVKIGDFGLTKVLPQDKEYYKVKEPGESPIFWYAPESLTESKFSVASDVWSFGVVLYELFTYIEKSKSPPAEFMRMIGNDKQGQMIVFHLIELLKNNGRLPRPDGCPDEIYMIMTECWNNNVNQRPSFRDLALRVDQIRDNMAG

| Structure (SMILES) | IC50 ([2]; HTRF, 60 min room temperature) [nM] | IC50 ([4]; HTRF, 60 min room temperature) [nM] | IC50 [2] [nM] | IC50 [5] [nM] | further results |
| --- | --- | --- | --- | --- | --- |
| N#CCC1(n2cc(-c3ncnc4[nH]ccc34)cn2)CN(C2CCN(C(=O)c3ccnc(C(F)(F)F)n3)CC2)C1 [Compound 9, [3-[4-(7H-pyrrolo[2,3-d]pyrimidin-4-yl)-1H-pyrazol-1-yl]-1-(1-{[2-(trifluoromethyl)pyrimidin-4-yl]carbonyl}piperidin-4-yl)azetidin-3-yl]acetonitrile] |  |  |  |  | JAK2/JAK1 [1]: >10 |
| Cn1ccc(C(=O)NCC2(c3cccc(-c4ncnc5[nH]ccc45)c3)Cc3ccccc3C2)n1 [Example 29] | > 3000 | 1000 to 3000 |  |  | IC50 [3]: 1000 to 3000 nM |
| Cc1ncoc1C(=O)NCC1(c2cccc(-c3ncnc4[nH]ccc34)c2)Cc2ccccc2C1 [Example 30] | > 3000 | 500 to 1000 |  |  | IC50 [3]: 500 to 1000 nM |
| CCCCNc1nc(-c2cccc(C3(CN)Cc4ccccc4C3)c2)c2cc[nH]c2n1 [Example 80, 4-{3-[2-(Aminomethyl)-2,3-dihydro-1H-inden-2-yl]phenyl}-N-butyl-7H-pyrrolo[2,3-d]pyrimidin-2-amine] |  | < 500 | < 500 | < 500 |  |
| CNc1nc(-c2cccc(C3(CN)Cc4ccccc4C3)c2)c2cc[nH]c2n1 [Example 86, 4-{3-[2-(Aminomethyl)-2,3-dihydro-1H-inden-2-yl]phenyl}-N-methyl-7H-pyrrolo[2,3-d]pyrimidin-2-amine] | 1000 to 3000 | < 500 |  | < 500 |  |
| CCNc1nc(-c2cccc(C3(CN)Cc4ccccc4C3)c2)c2cc[nH]c2n1 [Example 87, 4-{3-[2-(Aminomethyl)-2,3-dihydro-1H-inden-2-yl]phenyl}-N-ethyl-7H-pyrrolo[2,3-d]pyrimidin-2-amine] | 1000 to 3000 | < 500 |  | < 500 |  |
| CC(C)Nc1nc(-c2cccc(C3(CN)Cc4ccccc4C3)c2)c2cc[nH]c2n1 [Example 88, 4-{3-[2-(Aminomethyl)-2,3-dihydro-1H-inden-2-yl]phenyl}-N-isopropyl-7H-pyrrolo[2,3-d]pyrimidin-2-amine] |  | < 500 | > 3000 | < 500 |  |
| NCC1(c2cccc(-c3nc(NC4CCC4)nc4[nH]ccc34)c2)Cc2ccccc2C1 [Example 89, 4-{3-[2-(Aminomethyl)-2,3-dihydro-1H-inden-2-yl]phenyl}-N-cyclobutyl-7H-pyrrolo[2,3-d]pyrimidin-2-amine] |  | < 500 | < 500 | < 500 |  |
| NCC1(c2cccc(-c3nc(NC4CCCC4)nc4[nH]ccc34)c2)Cc2ccccc2C1 [Example 90, 4-{3-[2-(Aminomethyl)-2,3-dihydro-1H-inden-2-yl]phenyl}-N-cyclopentyl-7H-pyrrolo[2,3-d]pyrimidin-2-amine] | 500 to 1000 | < 500 |  | < 500 |  |
| NCC1(c2cccc(-c3nc(NC4CCCCC4)nc4[nH]ccc34)c2)Cc2ccccc2C1 [Example 91, 4-{3-[2-(Aminomethyl)-2,3-dihydro-1H-inden-2-yl]phenyl}-N-cyclohexyl-7H-pyrrolo[2,3-d]pyrimidin-2-amine] | 1000 to 3000 | < 500 |  | < 500 |  |
| Cn1cc(Nc2nc(-c3ccnc(C4(CN)Cc5ccccc5C4)c3)c3cc[nH]c3n2)cn1 [Example 94, 4-{2-[2-(Aminomethyl)-2,3-dihydro-1H-inden-2-yl]pyridin-4-yl}-N-(1-methyl-1H-pyrazol-4-yl)-7H-pyrrolo[2,3-d]pyrimidin-2-amine] |  | < 500 | < 500 | < 500 |  |
| NCC1(c2cc(-c3nc(Nc4cccc(CN5CCOCC5)c4)nc4[nH]ccc34)ccn2)Cc2ccccc2C1 [Example 95, 4-{2-[2-(Aminomethyl)-2,3-dihydro-1H-inden-2-yl]pyridin-4-yl}-N-[3-(morpholin-4-ylmethyl)phenyl]-7H-pyrrolo[2,3-d]pyrimidin-2-amine] |  | < 500 | < 500 | < 500 |  |
| COc1cnc2[nH]ccc2c1-c1ccnc(C2(CN)Cc3ccccc3C2)c1 [Example 96, 1-{2-[4-(5-Methoxy-1H-pyrrolo[2,3-b]pyridin-4-yl)pyridin-2-yl]-2,3-dihydro-1H-inden-2-yl}methanamine] |  |  | < 500 | < 500 | IC50 [4]: < 500 nM |
| NCC1(c2cc(-c3ccnc4[nH]ncc34)ccn2)Cc2ccccc2C1 [Example 97, 1-{2-[4-(1H-Pyrazolo[3,4-b]pyridin-4-yl)pyridin-2-yl]-2,3-dihydro-1H-inden-2-yl}methanamine] | 1000 to 3000 | < 500 |  |  | IC50 [3]: < 500 nM |
| CCOc1cn(-c2ccc(F)cc2C)nc1C(=O)Nc1ccc(Oc2ccnc3cc(OC)c(OC)cc23)c(F)c1 [LDC1267] |  |  |  |  | metastasis in tumor models [6]: blocks metastasis in tumor models with different histologies; NK cell activation [7]: activates NK cells |
